ChEMBL document CHEMBL1201862, “PubChem BioAssay data set” (2004)
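Exposure lasted 48 hours, with cells grown in 96-well plates and compounds tested at five concentrations. GI50 marks 50% less growth.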 The source made the active and inactive calls. Cut-off read from the data, not from the text of the source: active = GI50 up to about 1.1 µM and inactive = higher.

Tests used:
Assay in all cases: NCI-60 cell line screen, 48 h
[1] = test system: SK-MEL-28
[2] = test system: OVCAR-3
[3] = test system: U-251
[4] = test system: MDA-N
[5] = test system: HOP-92
[6] = test system: NCI-H23
[7] = test system: HCT-15
[8] = test system: SN12C
[9] = test system: COLO 205
[10] = test system: NCI/ADR-RES
[11] = test system: OVCAR-8
[12] = test system: T47D
[13] = test system: TK-10
[14] = test system: SNB-75
[15] = test system: HL-60
[16] = test system: IGROV-1
[17] = test system: MOLT-4
[18] = test system: NCI-H226
[19] = test system: SF-295
[20] = test system: UACC-257
[21] = test system: UACC-62
[22] = test system: KM12
[23] = test system: SK-MEL-5
[24] = test system: BT-549
[25] = test system: ACHN
[26] = test system: EKVX
[27] = test system: MCF7
[28] = test system: DU-145
[29] = test system: PC-3
[30] = test system: NCI-H460
[31] = test system: CAKI-1
[32] = test system: SK-MEL-2
[33] = test system: UO-31
[34] = test system: OVCAR-4
[35] = test system: HT-29
[36] = test system: HOP-62
[37] = test system: OVCAR-5
[38] = test system: HCC 2998
[39] = test system: MDA-MB-435
[40] = test system: SF-539
[41] = test system: HCT-116
[42] = test system: LOX IMVI
[43] = test system: SK-OV-3
[44] = test system: 786-0
[45] = test system: SNB-19
[46] = test system: MDA-MB-231
[47] = test system: M14
[48] = test system: SW-620
[49] = test system: A549
[50] = test system: SR
[51] = test system: NCI-H522
[52] = test system: K562
[53] = test system: A498
[54] = test system: Hs-578T
[55] = test system: Malme-3M
[56] = test system: SF-268
[57] = test system: CCRF-CEM
[58] = test system: RXF 393

O=C1Oc2ccccc2C(=O)/C1=C\NC(=S)c1ccncc1
GI50 [1]: 45.9 µM (inactive) | GI50 [2]: 71.6 µM (inactive) | GI50 [3]: > 100 µM (inactive) | GI50 [4]: > 100 µM (inactive) | GI50 [5]: > 100 µM (inactive) | GI50 [6]: > 100 µM (inactive) | GI50 [7]: 69.3 µM | GI50 [8]: > 100 µM (inactive) | GI50 [9]: > 100 µM (inactive) | GI50 [10]: > 100 µM (inactive) | GI50 [11]: 99.3 µM (inactive) | GI50 [12]: > 100 µM (inactive) | GI50 [13]: > 100 µM (inactive) | GI50 [14]: 99.3 µM (inactive) | GI50 [15]: 3.35 µM (inactive) | GI50 [16]: 67.1 µM (inactive) | GI50 [17]: 95.1 µM (inactive) | GI50 [18]: > 100 µM (inactive) | GI50 [19]: > 100 µM (inactive) | GI50 [20]: > 100 µM (inactive) | GI50 [21]: > 100 µM (inactive) | GI50 [22]: > 100 µM (inactive) | GI50 [23]: > 100 µM (inactive) | GI50 [24]: 31.6 µM (inactive) | GI50 [25]: 53.3 µM (inactive) | GI50 [26]: > 100 µM (inactive) | GI50 [27]: > 100 µM (inactive) | GI50 [28]: > 100 µM (inactive) | GI50 [29]: 94.4 µM (inactive) | GI50 [30]: 57.7 µM (inactive) | GI50 [31]: 51.3 µM (inactive) | GI50 [32]: 42.3 µM (inactive) | GI50 [33]: 45.7 µM (inactive) | GI50 [34]: > 100 µM (inactive) | GI50 [35]: > 100 µM (inactive) | GI50 [36]: 84.1 µM (inactive) | GI50 [37]: > 100 µM (inactive) | GI50 [38]: > 100 µM (inactive) | GI50 [39]: 98.4 µM (inactive) | GI50 [40]: > 100 µM (inactive) | GI50 [41]: > 100 µM (inactive) | GI50 [42]: > 100 µM (inactive) | GI50 [43]: > 100 µM (inactive) | GI50 [44]: > 100 µM (inactive) | GI50 [45]: 96.8 µM (inactive) | GI50 [46]: > 100 µM (inactive) | GI50 [47]: > 100 µM (inactive) | GI50 [48]: 11 µM (inactive) | GI50 [49]: > 100 µM (inactive)

OC1C2CCC3C2CC(C(O)(c2ccccc2)c2ccccc2)C13 (stereo not given)
GI50 [1]: > 100 µM (inactive) | GI50 [2]: 29.9 µM (inactive) | GI50 [3]: 70.3 µM (inactive) | GI50 [50]: 32.7 µM (inactive) | GI50 [4]: 33.3 µM (inactive) | GI50 [5]: 45.2 µM (inactive) | GI50 [6]: 44.5 µM (inactive) | GI50 [7]: 31.5 µM | GI50 [8]: 21.9 µM (inactive) | GI50 [9]: 18.5 µM (inactive) | GI50 [10]: 36.6 µM (inactive) | GI50 [51]: 34.8 µM (inactive) | GI50 [11]: 93.1 µM (inactive) | GI50 [12]: 79.3 µM (inactive) | GI50 [13]: 73.5 µM (inactive) | GI50 [14]: 5.47 µM (inactive) | GI50 [16]: 23.9 µM (inactive) | GI50 [17]: 35.8 µM (inactive) | GI50 [18]: 28.6 µM (inactive) | GI50 [19]: 28 µM (inactive) | GI50 [20]: 24.6 µM (inactive) | GI50 [21]: 47.5 µM (inactive) | GI50 [22]: 61.7 µM (inactive) | GI50 [23]: 28.6 µM (inactive) | GI50 [25]: 33.7 µM (inactive) | GI50 [26]: 33.8 µM (inactive) | GI50 [27]: 84.5 µM (inactive) | GI50 [52]: 18.2 µM (inactive) | GI50 [28]: > 100 µM (inactive) | GI50 [29]: 21.4 µM (inactive) | GI50 [53]: 37 µM (inactive) | GI50 [54]: 45.9 µM (inactive) | GI50 [30]: 41.3 µM (inactive) | GI50 [31]: 40 µM (inactive) | GI50 [32]: 18.4 µM (inactive) | GI50 [33]: 67.6 µM (inactive) | GI50 [34]: > 100 µM (inactive) | GI50 [35]: 74.5 µM (inactive) | GI50 [36]: 63.2 µM (inactive) | GI50 [55]: 28.4 µM (inactive) | GI50 [37]: > 100 µM (inactive) | GI50 [56]: > 100 µM (inactive) | GI50 [38]: > 100 µM (inactive) | GI50 [39]: 32.6 µM (inactive) | GI50 [57]: 29.4 µM (inactive) | GI50 [40]: 38.3 µM (inactive) | GI50 [41]: 36.1 µM (inactive) | GI50 [42]: 37.8 µM (inactive) | GI50 [43]: > 100 µM (inactive) | GI50 [44]: 37.5 µM (inactive) | GI50 [58]: 34.7 µM (inactive) | GI50 [45]: > 100 µM (inactive) | GI50 [46]: 29.6 µM (inactive) | GI50 [47]: 65.8 µM (inactive) | GI50 [48]: > 100 µM (inactive) | GI50 [49]: 36.6 µM (inactive)
